Reference: patent US20220354752A1, “NANOFIBRE MATRIX MADE OF NATURAL POLYMERS WITH NATURAL FUNCTIONAL INGREDIENTS FOR COSMETIC PRODUCTS” (NANOLAYR LIMITED, priority 2019, published 2022)

Key:
[1] = test system: human epidermal melanocytes; assay: Brightening in vitro study: melanin production of melanocytes; assay type: cell-based; conditions: kojic acid 42 μg/ml in cell culture, 96 hours incubation
Protocol: In vitro study is used to evaluate the brightening effect and is determined by analysing the melanin production of melanocytes. The level of melanin produced by melanocytes determines the colour of skin, therefore, the brightening effect can be evaluated by the impact of formulation on the melanin production of melanocytes. In this study, human epidermal melanocytes are utilised. Kojic acid, traditionally used as a brightening ingredient, is used as the positive control. Kojic add is prepared in 15% ethanol/Hanks balanced salt solution and added into cell culture to give final concentration of 42 μg/ml in cell culture. 0.8 cm circles of nanofibre is directly applied into the cell culture to give a final concentration of ethyl ascorbic add of 3 μg/ml in cell culture. FIG. 5 presents the result of melanin concentration in cells only, cells treated with kojic acid and cells treated with nanofibres after 96 hours incubation time.
The absorbance of each sample is read at 405 nm and then compared with a standard curve of synthetic melanin to estimate the concentration of melanin in the cell culture. […] The melanin concentration is 101.5 μg/ml in cells only, 101.1 μg/ml in cells with kojic add and 97.48 μg/ml in cells with nanofibres. […] This is probably due to the added kojic add concentration being very low. […]

[2] = test system: TNF-alpha; assay: Anti-inflammatory in vitro study: TNF-alpha in reconstructed epidermis treated with SDS; assay type: cell-based; conditions: human reconstructed epidermis, 0.1% SDS, 24 hours incubation
Protocol: A human reconstructed epidermis is put in contact with the vegan nanofibres (topical application to mimic the real condition of use) and treated with an irritant inflammatory agent such as sodium dodecyl sulfate (SDS) to assess the capability of vegan nanofibers to counteract the inflammatory event. The evaluation is performed by using a non-treated epidermis as negative control and the epidermis treated only with the inflammatory agent (SDS) as a positive control. TNF-alpha is often associated with the inflammatory process and oxidative stress as an acute pro-inflammatory marker.

Structure (SMILES) | inhibition to melanin production [1] | melanin concentration [1] [µg/mL] | concentration of TNF-alpha [2] [µg/mL]
O=c1cc(CO)occ1O [kojic acid] | slight inhibition to melanin production, but is not statistically significant | 101.1 | 
CCCCCCCCCCCCOS(=O)(=O)[O-].[Na+] [SDS, sodium dodecyl sulfate] |  |  | 47.92
